# According to PubChem BioAssay AID2060512 (Molecular Pharmacology Branch, DTP, NCI, 2025):
# System: 186277-243-T-J2-PDC complex spheroid viability
# Test: Anticancer human tumor 186277-243-T-J2-PDC patient-derived colon adenocarcinoma cell line growth inhibition [GQUAD]
# Settings: for IC50: curve of first compound; for viability, T/C: stronger effect = lower value
# Excerpt: DNA G-quadruplex Stabilizer Agents in Combinations in Complex Spheroids
# A high-throughput screen of multi-cell type tumor spheroids was designed to identify active combinations of DNA G-quadruplex stabilizer agents and targeted small molecules. Complex spheroids include a stromal component modeled by human endothelial cells (HUVEC) and fibroblasts modeled by human mesenchymal stem cells (MSCs). The concentration ranges selected for each drug and investigational agent were based upon clinically achievable concentrations if the clinical Cmax of the agent was known.
# Compounds. The drugs and investigational agents: pidnarulex (CX-5461; NSC782164), APTO-253 (NSC789042), BRACO-19 (NSC847499), peposertib (NSC802822), ceralasertib (NSC780249), elimusertib (NSC800525), camonsertib (NSC841442), AZD-1390 (NSC803789), olaparib (NSC753686), talazoparib (NSC767125), ART-558 (NSC835418), sotorasib (NSC818433), MRTX-1133 (NSC836407), SN-38 (NSC673596), topotecan (NSC609699), etoposide (NSC141540), doxorubicin (NSC123127), gemcitabine (NSC613327), 5-fluorouracil (NSC19893), paclitaxel (NSC125973), vemurafenib (NSC761431), panobinostat (NSC761190), R-306465 (JNJ-16241199; NSC773264), adavosertib (NSC754352), TP-3654 (NSC805149), carboplatin (NSC241240), KSQ-4279 (NSC840948), and staurosporine (NSC755774) were obtained from the National Cancer Institute (NCI) Developmental Therapeutics Program Chemical Repository (34). The FDA-approved anticancer drug set is available from the NCI Developmental Therapeutics Program. […] The stock solutions were prepared in dimethyl sulfoxide (DMSO, Sigma-Aldrich, St. Louis, MO, cat. D2650) at 800-fold the tested concentration and stored at -70 degrees C prior to their use. All drugs and investigational agents were tested over a range starting from a high concentration at or near the clinical Cmax and decreasing in half-log increments. If the clinical Cmax for an agent had not been determined, the highest concentration tested was 10 microM.
# 2.3 Cell Culture. All cells were maintained in an incubator at 37 degrees C and 5% CO2 with 95% humidity. The PDC lines were cultured according to standard operating procedures established by the NCI PDMR. All PDCs were thawed and cultured in Matrigel-coated flasks prepared with a working solution of 1X Ham's F-12 nutrient mix, without supplementation (Invitrogen, cat. 11765054), 100 U/mL penicillin-streptomycin (Invitrogen, cat. 15140122), and 2.5% Matrigel (Corning Inc., cat. 354248) for the first three passages. The 857933-349-R-J2-PDC line was cultured in 6C/Colon 1B media, which includes advanced DMEM/F-12 (Thermo Fisher Scientific, cat. 12634028), 10 mM HEPES (Thermo Fisher Scientific, cat. 15630080), 1X GlutaMAX supplement (Thermo Fisher Scientific, cat. 35050061), 0.1 mg/mL primocin (InvivoGen, cat. ant-pm-2), 10% defined fetal bovine serum, heat inactivated (HyClone Laboratories Inc., cat. SH30070.03HI), 50% L-WRN conditioned media (ATCC, cat. CRL-3276), 1.25 mM N-Acetyl-L-cysteine (Sigma-Aldrich, cat. A9165), 10 mM nicotinamide (Sigma-Aldrich, cat. N0636), 1X B-27 supplement (Thermo Fisher Scientific, cat. 17504044), 1X N-2 supplement (Thermo Fisher Scientific, cat. 17502048), 10 microM Y-27632 dihydrochloride (Tocris Bioscience, cat. 1254), and 50 ng/mL human EGF recombinant protein (Thermo Fisher Scientific, cat. PHG0311). The 485176-168-R4-J1-PDC line was cultured in Panc media, which includes all 6C/Colon 1B media components plus 100 ng/mL human FGF-10 (Thermo Fisher Scientific, cat. 100-26), 500 nM SB-431542 (Selleckchem, cat. S1067), and gastrin (Tocris, cat. 3006).
# […]
# [1] = second compound 0.0316 µM, first compound 0.0316 µM
# [2] = second compound 0.0316 µM, first compound 0.1 µM
# [3] = second compound 0.0316 µM, first compound 0.316 µM
# [4] = second compound 0.0316 µM, first compound 1 µM
# [5] = second compound 0.0316 µM, first compound 3.16 µM
# [6] = second compound 0.0316 µM, first compound 10 µM
# [7] = second compound 0.1 µM, first compound 0.0316 µM
# [8] = second compound 0.1 µM, first compound 0.1 µM
# [9] = second compound 0.1 µM, first compound 0.316 µM
# [10] = second compound 0.1 µM, first compound 1 µM
# [11] = second compound 0.1 µM, first compound 3.16 µM
# [12] = second compound 0.1 µM, first compound 10 µM
# [13] = second compound 0.316 µM, first compound 0.0316 µM
# [14] = second compound 0.316 µM, first compound 0.1 µM
# [15] = second compound 0.316 µM, first compound 0.316 µM
# [16] = second compound 0.316 µM, first compound 1 µM
# [17] = second compound 0.316 µM, first compound 3.16 µM
# [18] = second compound 0.316 µM, first compound 10 µM
# [19] = second compound 1 µM, first compound 0.0316 µM
# [20] = second compound 1 µM, first compound 0.1 µM
# [21] = second compound 1 µM, first compound 0.316 µM
# [22] = second compound 1 µM, first compound 1 µM
# [23] = second compound 1 µM, first compound 3.16 µM
# [24] = second compound 1 µM, first compound 10 µM
# [25] = second compound 3.16 µM, first compound 0.0316 µM
# [26] = second compound 3.16 µM, first compound 0.1 µM
# [27] = second compound 3.16 µM, first compound 0.316 µM
# [28] = second compound 3.16 µM, first compound 1 µM
# [29] = second compound 3.16 µM, first compound 3.16 µM
# [30] = second compound 3.16 µM, first compound 10 µM
# [31] = second compound 10 µM, first compound 0.0316 µM
# [32] = second compound 10 µM, first compound 0.1 µM
# [33] = second compound 10 µM, first compound 0.316 µM
# [34] = second compound 10 µM, first compound 1 µM
# [35] = second compound 10 µM, first compound 3.16 µM
# [36] = second compound 10 µM, first compound 10 µM
# 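Further: spheroids exposed to drugs for 7 days.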
# 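Wherever viability, T/C is given: 100% = DMSO vehicle control viability.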
compound,measurement,setting,value
CC(C)n1c(=O)n(C)c2cnc3cc(F)c(-c4ccc(OCCCN5CCCCC5)nc4)cc3c21 + CN(C)c1ccc(Nc2c3ccc(NC(=O)CCN4CCCC4)cc3nc3cc(NC(=O)CCN4CCCC4)ccc23)cc1,IC50,second compound 0.0316 µM,> 10000 nM
same,IC50,second compound 0.1 µM,> 10000 nM
same,IC50,second compound 0.316 µM,> 10000 nM
same,IC50,second compound 1 µM,> 10000 nM
same,IC50,second compound 3.16 µM,> 10000 nM
same,IC50,second compound 10 µM,6100 nM
same,"viability, T/C",[1],94.4%
same,"viability, T/C",[2],108%
same,"viability, T/C",[3],91.8%
same,"viability, T/C",[4],98.1%
same,"viability, T/C",[5],109%
same,"viability, T/C",[6],97.9%
same,"viability, T/C",[7],110%
same,"viability, T/C",[8],105%
same,"viability, T/C",[9],102%
same,"viability, T/C",[10],110%
same,"viability, T/C",[11],114%
same,"viability, T/C",[12],95.3%
same,"viability, T/C",[13],97.9%
same,"viability, T/C",[14],115%
same,"viability, T/C",[15],103%
same,"viability, T/C",[16],98.3%
same,"viability, T/C",[17],122%
same,"viability, T/C",[18],93.7%
same,"viability, T/C",[19],132%
same,"viability, T/C",[20],87%
same,"viability, T/C",[21],97.6%
same,"viability, T/C",[22],100%
same,"viability, T/C",[23],111%
same,"viability, T/C",[24],86.1%
same,"viability, T/C",[25],101%
same,"viability, T/C",[26],84.9%
same,"viability, T/C",[27],97.2%
same,"viability, T/C",[28],118%
same,"viability, T/C",[29],119%
same,"viability, T/C",[30],84.8%
same,"viability, T/C",[31],118%
same,"viability, T/C",[32],96.8%
same,"viability, T/C",[33],112%
same,"viability, T/C",[34],88.8%
same,"viability, T/C",[35],66.4%
same,"viability, T/C",[36],37.8%
CC1COCCN1c1cc(-c2ccnn2C)c2ccnc(-c3ccn[nH]3)c2n1 (centres undefined) + CN(C)c1ccc(Nc2c3ccc(NC(=O)CCN4CCCC4)cc3nc3cc(NC(=O)CCN4CCCC4)ccc23)cc1,IC50,second compound 0.0316 µM,51.5 nM
same,IC50,second compound 0.1 µM,46.4 nM
same,IC50,second compound 0.316 µM,50.9 nM
same,IC50,second compound 1 µM,< 31.6 nM
same,IC50,second compound 3.16 µM,40.8 nM
same,IC50,second compound 10 µM,32.5 nM
same,"viability, T/C",[1],77.7%
same,"viability, T/C",[2],12.4%
same,"viability, T/C",[3],6.8%
same,"viability, T/C",[4],5.06%
same,"viability, T/C",[5],4.62%
same,"viability, T/C",[6],5.21%
same,"viability, T/C",[7],68.3%
same,"viability, T/C",[8],13.6%
same,"viability, T/C",[9],6.89%
same,"viability, T/C",[10],4.08%
same,"viability, T/C",[11],5.19%
same,"viability, T/C",[12],5.02%
same,"viability, T/C",[13],76.5%
same,"viability, T/C",[14],12.4%
same,"viability, T/C",[15],5.74%
same,"viability, T/C",[16],4.54%
same,"viability, T/C",[17],5.22%
same,"viability, T/C",[18],5.43%
same,"viability, T/C",[19],49.3%
same,"viability, T/C",[20],12.6%
same,"viability, T/C",[21],6.08%
same,"viability, T/C",[22],4.26%
same,"viability, T/C",[23],5.15%
same,"viability, T/C",[24],4.9%
same,"viability, T/C",[25],60.6%
same,"viability, T/C",[26],13.1%
same,"viability, T/C",[27],6.06%
same,"viability, T/C",[28],4.8%
same,"viability, T/C",[29],4.59%
same,"viability, T/C",[30],4.41%
same,"viability, T/C",[31],51%
same,"viability, T/C",[32],12.1%
same,"viability, T/C",[33],5.91%
same,"viability, T/C",[34],4.1%
same,"viability, T/C",[35],4.19%
same,"viability, T/C",[36],4.01%
